From the kinase profiling compilation of Christmann-Franck et al. (2016)

Legend:
Experiment in all cases: KINOMEscan competition binding
Conditions in all cases: compound 10.0 µM
PRKAA1 (human) = PRKAA1 (human) (UniProt Q13131)
DAPK3 (human) = DAPK3 (human) (UniProt O43293)
CSNK2A2 (human) = CSNK2A2 (human) (UniProt P19784)
PRKD2 (human) = PRKD2 (human) (UniProt Q9BZL6)
MARK2 (human) = MARK2 (human) (UniProt Q7KZI7)
ROCK2 (human) = ROCK2 (human) (UniProt O75116)
MYLK4 (human) = MYLK4 (human) (UniProt Q86YV6)
PIM3 (human) = PIM3 (human) (UniProt Q86V86)
PAK6 (human) = PAK6 (human) (UniProt Q9NQU5)
LIMK1 (human) = LIMK1 (human) (UniProt P53667)
LIMK1 (human), sequence (P53667 whole entry, looked up): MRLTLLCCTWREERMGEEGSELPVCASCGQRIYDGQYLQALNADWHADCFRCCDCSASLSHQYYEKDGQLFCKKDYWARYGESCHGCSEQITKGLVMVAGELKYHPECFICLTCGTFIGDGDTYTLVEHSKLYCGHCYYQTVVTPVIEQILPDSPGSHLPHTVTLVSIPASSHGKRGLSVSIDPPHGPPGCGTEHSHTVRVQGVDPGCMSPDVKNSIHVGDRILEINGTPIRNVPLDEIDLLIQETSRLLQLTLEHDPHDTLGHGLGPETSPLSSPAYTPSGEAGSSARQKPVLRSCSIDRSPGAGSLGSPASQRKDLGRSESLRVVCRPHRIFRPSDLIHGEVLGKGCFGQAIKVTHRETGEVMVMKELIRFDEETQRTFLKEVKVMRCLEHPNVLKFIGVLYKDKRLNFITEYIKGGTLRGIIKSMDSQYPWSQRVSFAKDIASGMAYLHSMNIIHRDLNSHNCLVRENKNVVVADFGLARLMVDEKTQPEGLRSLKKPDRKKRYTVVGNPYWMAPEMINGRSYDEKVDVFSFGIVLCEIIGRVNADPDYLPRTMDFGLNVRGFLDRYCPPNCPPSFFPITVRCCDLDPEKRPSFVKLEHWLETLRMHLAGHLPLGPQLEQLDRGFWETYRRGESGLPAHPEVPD

SLK (human) = SLK (human) (UniProt Q9H2G2)
DCLK1 (human) = DCLK1 (human) (UniProt O15075)
MAP2K5 (human) = MAP2K5 (human) (UniProt Q13163)
MET (human) = MET (human) (UniProt P08581)
STK33 (human) = STK33 (human) (UniProt Q9BYT3)
CDK13 (human) = CDK13 (human) (UniProt Q14004)
MAP3K6 (human) = MAP3K6 (human) (UniProt O95382)
CAMKK2 (human) = CAMKK2 (human) (UniProt Q96RR4)
AURKB (human) = AURKB (human) (UniProt Q96GD4)
PKMYT1 (human) = PKMYT1 (human) (UniProt Q99640)
PI4KB (human) = PI4KB (human) (UniProt Q9UBF8)
MAPK9 (human) = MAPK9 (human) (UniProt P45984)
MAPK9 (human), sequence (P45984 whole entry, looked up): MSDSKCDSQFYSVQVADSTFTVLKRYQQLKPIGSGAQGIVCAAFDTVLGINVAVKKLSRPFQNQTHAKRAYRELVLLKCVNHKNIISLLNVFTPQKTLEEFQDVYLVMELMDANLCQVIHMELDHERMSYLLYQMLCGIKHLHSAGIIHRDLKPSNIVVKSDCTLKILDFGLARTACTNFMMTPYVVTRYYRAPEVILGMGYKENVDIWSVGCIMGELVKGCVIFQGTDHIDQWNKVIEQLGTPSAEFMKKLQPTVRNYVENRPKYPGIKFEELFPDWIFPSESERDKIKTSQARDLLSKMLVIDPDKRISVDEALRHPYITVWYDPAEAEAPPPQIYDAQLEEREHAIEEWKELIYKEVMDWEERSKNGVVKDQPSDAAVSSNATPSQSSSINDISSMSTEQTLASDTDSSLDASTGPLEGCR

EPHB2 (human) = EPHB2 (human) (UniProt P29323)
FGFR3 (human) = FGFR3 (human) (UniProt P22607)
IRAK4 (human) = IRAK4 (human) (UniProt Q9NWZ3)
IRAK4 (human), sequence (Q9NWZ3 whole entry, looked up): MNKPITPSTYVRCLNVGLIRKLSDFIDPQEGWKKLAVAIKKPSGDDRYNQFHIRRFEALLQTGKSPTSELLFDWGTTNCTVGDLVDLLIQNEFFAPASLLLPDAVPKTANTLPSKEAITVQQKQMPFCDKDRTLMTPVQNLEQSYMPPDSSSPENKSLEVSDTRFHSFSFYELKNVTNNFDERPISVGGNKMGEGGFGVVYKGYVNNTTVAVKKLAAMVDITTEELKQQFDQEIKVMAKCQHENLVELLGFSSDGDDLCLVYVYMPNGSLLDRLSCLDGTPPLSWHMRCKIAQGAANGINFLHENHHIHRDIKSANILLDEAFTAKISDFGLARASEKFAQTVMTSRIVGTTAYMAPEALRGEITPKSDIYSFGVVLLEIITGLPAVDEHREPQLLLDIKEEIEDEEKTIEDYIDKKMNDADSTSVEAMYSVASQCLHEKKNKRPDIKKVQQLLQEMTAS

EPHA6 (human) = EPHA6 (human) (UniProt Q9UF33)
DYRK1B (human) = DYRK1B (human) (UniProt Q9Y463)
DYRK1B (human), sequence (Q9Y463 whole entry, looked up): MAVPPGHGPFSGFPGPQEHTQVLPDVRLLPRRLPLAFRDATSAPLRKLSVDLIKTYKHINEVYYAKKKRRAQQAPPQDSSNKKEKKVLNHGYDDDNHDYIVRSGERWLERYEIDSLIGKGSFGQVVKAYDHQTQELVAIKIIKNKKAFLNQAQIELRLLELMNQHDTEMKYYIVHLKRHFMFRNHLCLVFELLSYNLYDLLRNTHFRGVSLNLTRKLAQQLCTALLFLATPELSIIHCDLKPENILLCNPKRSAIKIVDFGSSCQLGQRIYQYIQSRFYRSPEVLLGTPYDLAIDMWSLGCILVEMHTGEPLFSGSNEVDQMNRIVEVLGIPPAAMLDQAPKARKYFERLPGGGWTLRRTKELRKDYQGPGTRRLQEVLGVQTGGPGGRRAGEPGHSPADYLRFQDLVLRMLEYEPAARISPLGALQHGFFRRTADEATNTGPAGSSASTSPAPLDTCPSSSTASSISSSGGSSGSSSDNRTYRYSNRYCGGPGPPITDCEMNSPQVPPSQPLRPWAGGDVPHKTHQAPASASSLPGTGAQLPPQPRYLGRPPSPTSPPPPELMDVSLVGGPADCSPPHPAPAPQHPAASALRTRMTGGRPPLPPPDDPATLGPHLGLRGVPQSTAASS

CDK19 (human) = CDK19 (human) (UniProt Q9BWU1)
TESK1 (human) = TESK1 (human) (UniProt Q15569)
MINK1 (human) = MINK1 (human) (UniProt Q8N4C8)
MINK1 (human), sequence (Q8N4C8 whole entry, looked up): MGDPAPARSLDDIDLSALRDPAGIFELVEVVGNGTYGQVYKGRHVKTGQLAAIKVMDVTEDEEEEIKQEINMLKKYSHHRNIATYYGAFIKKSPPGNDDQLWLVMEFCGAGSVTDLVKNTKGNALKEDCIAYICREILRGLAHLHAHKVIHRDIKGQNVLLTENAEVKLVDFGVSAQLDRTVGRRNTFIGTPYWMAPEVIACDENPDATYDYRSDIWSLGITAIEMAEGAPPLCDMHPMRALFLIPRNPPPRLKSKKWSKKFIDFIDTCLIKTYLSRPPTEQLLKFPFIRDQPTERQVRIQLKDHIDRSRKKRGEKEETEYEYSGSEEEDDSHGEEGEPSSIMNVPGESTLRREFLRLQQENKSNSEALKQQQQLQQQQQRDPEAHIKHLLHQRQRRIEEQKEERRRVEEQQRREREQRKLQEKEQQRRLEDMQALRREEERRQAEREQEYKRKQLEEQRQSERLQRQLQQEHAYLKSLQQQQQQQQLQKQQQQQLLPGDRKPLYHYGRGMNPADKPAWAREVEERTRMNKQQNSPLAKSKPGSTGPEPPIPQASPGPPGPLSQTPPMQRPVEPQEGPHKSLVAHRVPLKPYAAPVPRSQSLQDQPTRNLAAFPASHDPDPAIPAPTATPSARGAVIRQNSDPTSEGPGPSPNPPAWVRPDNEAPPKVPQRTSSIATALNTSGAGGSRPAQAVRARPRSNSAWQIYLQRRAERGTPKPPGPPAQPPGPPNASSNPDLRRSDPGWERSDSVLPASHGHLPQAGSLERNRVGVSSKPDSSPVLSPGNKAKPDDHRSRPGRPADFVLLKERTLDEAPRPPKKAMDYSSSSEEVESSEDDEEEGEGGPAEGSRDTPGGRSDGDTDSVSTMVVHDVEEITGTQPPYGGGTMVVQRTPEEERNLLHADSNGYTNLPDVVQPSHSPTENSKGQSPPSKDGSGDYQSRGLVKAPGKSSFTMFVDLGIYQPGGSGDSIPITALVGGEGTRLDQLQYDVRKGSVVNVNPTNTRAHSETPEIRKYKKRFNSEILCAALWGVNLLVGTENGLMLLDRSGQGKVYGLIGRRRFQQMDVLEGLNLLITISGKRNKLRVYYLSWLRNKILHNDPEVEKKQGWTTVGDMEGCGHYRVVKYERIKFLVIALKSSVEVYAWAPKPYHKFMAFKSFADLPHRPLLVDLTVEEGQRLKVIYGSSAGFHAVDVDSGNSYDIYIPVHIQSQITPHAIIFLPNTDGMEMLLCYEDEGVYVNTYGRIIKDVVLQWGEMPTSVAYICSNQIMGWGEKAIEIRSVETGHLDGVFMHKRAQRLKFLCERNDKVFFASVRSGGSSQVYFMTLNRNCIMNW

MAP3K12 (human) = MAP3K12 (human) (UniProt Q12852)
MAP3K7 (human) = MAP3K7 (human) (UniProt O43318)
[1] = biological target: JAK3 JH1 catalytic (human) (UniProt P52333)
MAP2K1 (human) = MAP2K1 (human) (UniProt Q02750)
WEE2 (human) = WEE2 (human) (UniProt P0C1S8)
[2] = system: PIK3CA (human), P42336 [M1043I]
CAMKK1 (human) = CAMKK1 (human) (UniProt Q8N5S9)
CDK11B (human) = CDK11B (human) (UniProt P21127)
INSR (human) = INSR (human) (UniProt P06213)
ERBB2 (human) = ERBB2 (human) (UniProt P04626)
ERBB2 (human), sequence (P04626 whole entry, looked up): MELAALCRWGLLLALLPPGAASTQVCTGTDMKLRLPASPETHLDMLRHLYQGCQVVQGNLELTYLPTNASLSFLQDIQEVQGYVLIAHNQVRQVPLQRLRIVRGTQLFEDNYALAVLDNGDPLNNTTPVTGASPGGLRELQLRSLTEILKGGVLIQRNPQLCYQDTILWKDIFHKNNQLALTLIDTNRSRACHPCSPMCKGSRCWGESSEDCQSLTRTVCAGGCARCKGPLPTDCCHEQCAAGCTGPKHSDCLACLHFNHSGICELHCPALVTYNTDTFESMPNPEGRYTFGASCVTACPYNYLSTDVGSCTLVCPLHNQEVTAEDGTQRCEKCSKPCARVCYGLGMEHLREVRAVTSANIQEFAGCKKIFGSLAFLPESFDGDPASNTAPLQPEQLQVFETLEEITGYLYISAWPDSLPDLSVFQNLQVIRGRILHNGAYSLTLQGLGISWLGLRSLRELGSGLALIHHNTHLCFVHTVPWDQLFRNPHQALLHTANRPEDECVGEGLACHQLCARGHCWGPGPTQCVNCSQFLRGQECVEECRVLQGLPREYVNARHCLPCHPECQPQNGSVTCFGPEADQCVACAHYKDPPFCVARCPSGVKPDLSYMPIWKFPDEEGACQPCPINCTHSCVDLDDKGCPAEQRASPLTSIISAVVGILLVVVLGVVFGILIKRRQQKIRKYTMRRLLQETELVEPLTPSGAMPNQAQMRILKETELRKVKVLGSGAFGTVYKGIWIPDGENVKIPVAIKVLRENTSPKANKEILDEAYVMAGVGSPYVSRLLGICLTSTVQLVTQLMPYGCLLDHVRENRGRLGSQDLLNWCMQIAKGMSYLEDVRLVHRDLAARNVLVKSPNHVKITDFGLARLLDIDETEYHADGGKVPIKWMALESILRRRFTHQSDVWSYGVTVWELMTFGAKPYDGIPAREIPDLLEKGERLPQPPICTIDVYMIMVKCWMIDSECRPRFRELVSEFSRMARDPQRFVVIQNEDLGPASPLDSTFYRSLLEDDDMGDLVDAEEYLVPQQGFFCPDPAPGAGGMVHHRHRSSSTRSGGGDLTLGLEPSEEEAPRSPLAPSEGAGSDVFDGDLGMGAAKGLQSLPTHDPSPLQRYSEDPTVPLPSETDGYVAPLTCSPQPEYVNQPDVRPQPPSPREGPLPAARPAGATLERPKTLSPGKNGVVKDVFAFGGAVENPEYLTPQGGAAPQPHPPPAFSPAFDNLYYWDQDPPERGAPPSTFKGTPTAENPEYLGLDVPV

Structure (SMILES) | kinase still bound, per cent of control (PRKAA1 (human)) [%] | kinase still bound, per cent of control (DAPK3 (human)) [%] | kinase still bound, per cent of control (CSNK2A2 (human)) [%] | kinase still bound, per cent of control (PRKD2 (human)) [%] | kinase still bound, per cent of control (MARK2 (human)) [%] | kinase still bound, per cent of control (ROCK2 (human)) [%] | kinase still bound, per cent of control (MYLK4 (human)) [%] | kinase still bound, per cent of control (PIM3 (human)) [%] | kinase still bound, per cent of control (PAK6 (human)) [%] | kinase still bound, per cent of control (LIMK1 (human)) [%] | kinase still bound, per cent of control (SLK (human)) [%] | kinase still bound, per cent of control (DCLK1 (human)) [%] | kinase still bound, per cent of control (MAP2K5 (human)) [%] | kinase still bound, per cent of control (MET (human)) [%] | kinase still bound, per cent of control (STK33 (human)) [%] | kinase still bound, per cent of control (CDK13 (human)) [%] | kinase still bound, per cent of control (MAP3K6 (human)) [%] | kinase still bound, per cent of control (CAMKK2 (human)) [%] | kinase still bound, per cent of control (AURKB (human)) [%] | kinase still bound, per cent of control (PKMYT1 (human)) [%] | other results
CCN1CCN(Cc2ccc(NC(=O)c3ccc(C)c(/C=C/c4cnc5[nH]ccc5c4OC)c3)cc2C(F)(F)F)CC1 | 20 | 99 | 95 | 50 | 68 | 34 | 23 | 100 | 54 | 7.7 | 0.6 | 93 | 0.2 | 40 | 31 | 100 | 64 | 100 | 16 | 71 | kinase still bound, per cent of control (PI4KB (human)): 91%; kinase still bound, per cent of control (MAPK9 (human)): 0.1%; kinase still bound, per cent of control (EPHB2 (human)): 0%; kinase still bound, per cent of control (FGFR3 (human)): 1.8%; kinase still bound, per cent of control (IRAK4 (human)): 48%; kinase still bound, per cent of control (EPHA6 (human)): 0%; kinase still bound, per cent of control (DYRK1B (human)): 27%; kinase still bound, per cent of control (CDK19 (human)): 4.2%; kinase still bound, per cent of control (TESK1 (human)): 15%; kinase still bound, per cent of control (MINK1 (human)): 2.8%; kinase still bound, per cent of control (MAP3K12 (human)): 22%; kinase still bound, per cent of control (MAP3K7 (human)): 4.8%; kinase still bound, per cent of control [1]: 1.1%; kinase still bound, per cent of control (MAP2K1 (human)): 74%; kinase still bound, per cent of control (WEE2 (human)): 4.8%; kinase still bound, per cent of control [2]: 84%; kinase still bound, per cent of control (CAMKK1 (human)): 100%; kinase still bound, per cent of control (CDK11B (human)): 8.5%; kinase still bound, per cent of control (INSR (human)): 79%; kinase still bound, per cent of control (ERBB2 (human)): 0%
CCCS(=O)(=O)Nc1ccc(F)c(C(=O)c2c[nH]c3ncc(Cl)cc23)c1F | 64 | 85 | 12 | 100 | 92 | 81 | 15 | 65 | 45 | 46 | 15 | 52 | 0.15 | 77 | 85 | 100 | 96 | 79 | 29 | 100 | kinase still bound, per cent of control (PI4KB (human)): 25%; kinase still bound, per cent of control (MAPK9 (human)): 71%; kinase still bound, per cent of control (EPHB2 (human)): 100%; kinase still bound, per cent of control (FGFR3 (human)): 71%; kinase still bound, per cent of control (IRAK4 (human)): 86%; kinase still bound, per cent of control (EPHA6 (human)): 100%; kinase still bound, per cent of control (DYRK1B (human)): 87%; kinase still bound, per cent of control (CDK19 (human)): 0.8%; kinase still bound, per cent of control (TESK1 (human)): 13%; kinase still bound, per cent of control (MINK1 (human)): 28%; kinase still bound, per cent of control (MAP3K12 (human)): 52%; kinase still bound, per cent of control (MAP3K7 (human)): 51%; kinase still bound, per cent of control [1]: 24%; kinase still bound, per cent of control (MAP2K1 (human)): 0.8%; kinase still bound, per cent of control (WEE2 (human)): 100%; kinase still bound, per cent of control [2]: 76%; kinase still bound, per cent of control (CAMKK1 (human)): 75%; kinase still bound, per cent of control (CDK11B (human)): 99%; kinase still bound, per cent of control (INSR (human)): 83%; kinase still bound, per cent of control (ERBB2 (human)): 78%
